# Experimental data from patent publication US6746667B2, “Adhesive treatment for tinea pedis” (Closure Medical Corporation, priority 2001, dated 2004).
# Assay: observation of haloprogin / 2-octyl cyanoacrylate monomer composition after preparation
# Type: physicochemical
# Conditions: 30 mg in 2 mL 2-octyl cyanoacrylate monomer; about one minute and at least twenty-four hours after preparation
# Protocol: A 2-octyl cyanoacrylate monomer composition is prepared by adding 30 mg of haloprogin, an anti-fungal agent, to 2 mL of 2-octyl cyanoacrylate monomer. The mixture is sealed in a glass vial and stirred. The characteristics of the composition are observed at about one minute after preparation and later at least twenty-four hours after preparation.
smiles,measurement,value
Clc1cc(Cl)c(OCC#CI)cc1Cl [haloprogin],premature polymerization of the monomer (stability),does not cause premature polymerization
same,solubility in the monomer,soluble in the monomer
